Test results taken from patent publication US6545032B1, “Synthesis of [3,5,7]-H-imidazo[1,5-a] imidazol-2(3H)-one compounds” (Torrey Pines Institute for Molecular Studies, priority 1999, dated 2003).

What was measured:
[1] = molecular target: T1, kappa opiate receptor (Cavia porcellus, UniProt P41144); experiment: Inhibition of tritiated U69,593 binding to the kappa opiate receptor in guinea pig brain homogenates; parameters: Mean: unit not given beside the values; settings: 3 nm tritiated U69,593, guinea pig brain membranes; for % Bound: [3H]U69,593 bound; for % Inhibition: inhibition of [3H]U69,593 binding; for Mean: mean bound radioactivity of [3H]U69,593, 2.5 hours 25° C.; for Minus NSB: mean minus non-specific binding
T1 construct: guinea pig cortices and cerebella were homogenized in 40 mL of Buffer A; from tissue; host or cells: guinea pig cortices and cerebella, crude membrane suspension
T1 sequence (P41144 whole entry): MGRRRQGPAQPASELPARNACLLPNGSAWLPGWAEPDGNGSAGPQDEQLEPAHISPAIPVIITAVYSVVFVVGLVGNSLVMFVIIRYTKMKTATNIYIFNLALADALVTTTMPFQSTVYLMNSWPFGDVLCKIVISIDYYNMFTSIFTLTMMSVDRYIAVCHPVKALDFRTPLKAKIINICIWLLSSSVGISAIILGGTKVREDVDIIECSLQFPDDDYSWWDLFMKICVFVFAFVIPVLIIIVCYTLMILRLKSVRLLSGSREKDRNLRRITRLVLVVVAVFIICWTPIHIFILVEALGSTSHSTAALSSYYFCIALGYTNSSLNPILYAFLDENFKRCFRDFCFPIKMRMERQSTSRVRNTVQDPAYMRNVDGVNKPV
Description: The above-prepared library of individual compounds was screened for the ability to inhibit the binding of tritiated Compound U69,593 that is known to bind specifically to the kappa opiate receptor present in guinea pig brain homogenates following literature procedures. [Dooley et al., J. Biol. Chem., 273(30) 18848-18856 (1998)]
Briefly, guinea pig cortices and cerebella were homogenized in 40 mL of Buffer A [50 mM Tris-HCl, pH 7.4] at 4° C. Homogenates were centrifuged [Beckman® J2-HC, 35, 300×g] for 10 minutes. The pellets were resuspended in fresh buffer and incubated at 37° C. for 40 minutes. Following incubation, the suspensions were centrifuged as before, the resulting pellets resuspended in 100 volumes of Tris buffer, and the suspensions combined. Membrane suspensions were prepared and used on the same day. Protein content of the crude homogenates was determined by the method of Bradford, Anal. Biochem., 72:248-252 (1976).
Each assay tube contained 0.5 mL of membrane suspension, 3 nm of tritiated Compound U69,593 [(5a,7a,8b)-(−)-N-methyl-N-(7-(1-pyrrolidinyl)-1-oxaspiro(4,5)dec-8-yl)-benzeneacetamide; Lahti et al., European J. Pharmacol., 109:281-284(199-85)] in a total volume of 0.65 mL. Assay tubes were incubated for 2.5 hours a 25° C. The assay was then filtered through GF-B filters on a Tomec™ harvester (Orange, Conn.). The filters were subsequently washed with 6 mL of 50 mM Tris-HC1, pH 7.4 at 4° C. Bound radioactivity was counted on a Wallace™ Beta-plate Liquid Scintillation Counter (Piscataway, N.J.). Unlabeled U50, 488 [(trans-(dl)-3,4-dichloro-N-methyl-N-[2-(1-pyrrolidinyl)cyclohexyl]-benzeneacetamide) methane sulfonate hydrate; Lahti et al., Life Sci., 31:2257-xx(1982) and Von Voightlander et al., J. Pharmacol. Exp. Ther., 224:7 (1983)] was used as a competitive inhibitor to generate a standard curve and determine nonspecific binding. The results of these assays are shown in the table, below, wherein the “R” groups are as discussed for Example 1.

[2] = molecular target: T2, mu opiate receptor (Rattus norvegicus, UniProt P33535); experiment: Inhibition of [3H]DAMGO binding to the mu opiate receptor in rat brain homogenates; parameters: Mean: unit not given beside the values; settings: 0.08 mg of compound per milliliter, 7 nM 3H-labeled DAMGO, rat brain membranes; for % Bound: [3H]DAMGO bound; for Mean: mean bound radioactivity of [3H]DAMGO; for Minus NSB*: mean minus non-specific binding; for % Inhibition: percent inhibition of DAMGO binding
T2 construct: from tissue; host or cells: rat brain membranes/homogenate
T2 sequence (P33535 whole entry): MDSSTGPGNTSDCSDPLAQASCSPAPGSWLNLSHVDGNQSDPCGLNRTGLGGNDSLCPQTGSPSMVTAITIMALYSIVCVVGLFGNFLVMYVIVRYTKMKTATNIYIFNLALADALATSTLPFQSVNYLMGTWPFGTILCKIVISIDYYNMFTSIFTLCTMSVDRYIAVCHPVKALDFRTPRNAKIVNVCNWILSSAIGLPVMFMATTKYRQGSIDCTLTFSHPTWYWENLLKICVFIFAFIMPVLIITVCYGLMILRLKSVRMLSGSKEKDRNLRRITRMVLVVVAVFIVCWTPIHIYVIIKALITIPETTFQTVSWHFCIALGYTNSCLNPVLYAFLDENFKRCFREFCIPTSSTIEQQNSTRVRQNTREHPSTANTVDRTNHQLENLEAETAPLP
Description: The previously prepared [3,5,7]-1H-imidazo[1,5-a]-imidazol-2(3H)-one library of individual compounds was screened for the ability to inhibit the binding of [^3H] [D-Ala^2,MePhe^4,Gly^5-ol]enkephalin (DAMGO) that is known to bind specifically to the mu opiate receptor present in rat brain homogenates following literature procedures. [Dooley et al., Science, 266:2019(1994); U.S. Pat. No. 5,763,193.]
Preparation of rat brain membranes and the receptor binding assay were carried out as described in Dooley et al., Life Sci., 52:1509(1993). Each tube in the screening assay contained 0.08 mg of compound mixture per milliliter, 0.5 mL of membrane suspension (0.1 mg of protein), 7 nM ^3H-labeled DAMGO [specific activity 36 Ci/mmol, obtained from the National Institute on Drug Abuse (NIDA) repository through Chiron Mimotopes PeptideSystems (San Diego, Calif.) and […] of peptide mixture in 50 mM Tris-HCl buffer (pH 7.4). The final volume was 0.65 mL. The results of these screenings are shown in the table, below, wherein the “R” groups are as discussed for Example 1. The results are reported as percent inhibition of DAMGO binding.

SMILES | % Bound [1] [%] | % Inhibition [1] [%] | Mean [1] | Minus NSB [1] | % Bound [2] [%] | Mean [2] | Minus NSB* [2] | % Inhibition [2] [%]
CCOc1ccc(Cc2nc(C(C)C)c3n2C(C(C)C)C(=O)N3)cc1 (racemic) [Pool 79] | 90.338 | 9.662 | 1842.9 | 935.90 | 65 | 929.1 | 621.10 | 35
CC(C)c1nc(Cc2ccc(Cl)c(Cl)c2)n2c1NC(=O)C2C(C)C (racemic) [Pool 81] | 89.223 | 10.777 | 1831.35 | 924.35 | 71 | 988.3 | 680.30 | 29
CC(C)c1nc(Cc2cc(C(F)(F)F)cc(C(F)(F)F)c2)n2c1NC(=O)C2C(C)C (racemic) [Pool 82] | 70.589 | 29.411 | 1638.3 | 731.30 | 63 | 911.65 | 603.65 | 37
CC(C)c1nc(Cc2ccc(-c3ccccc3)cc2)n2c1NC(=O)C2C(C)C (racemic) [Pool 84] | 69.624 | 30.376 | 1628.3 | 721.30 | 57 | 850.4 | 542.40 | 43
COc1ccc(Cc2nc(C(C)C)c3n2C(C(C)C)C(=O)N3)cc1OC (racemic) [Pool 87] | 81.337 | 18.663 | 1749.65 | 842.65 | 59 | 870.35 | 562.35 | 41
CC(C)c1nc(Cc2ccccc2)n2c1NC(=O)C2C(C)C (racemic) [Pool 110] | 73.451 | 26.549 | 1667.95 | 760.95 | 54 | 818.7 | 510.70 | 46
CC(C)c1nc(CCCc2ccccc2)n2c1NC(=O)C2C(C)C (racemic) [Pool 113] | 61.597 | 38.403 | 1545.15 | 638.15 | 43 | 716.3 | 408.30 | 57
CCCc1nc(C(C)C)c2n1C(C(C)C)C(=O)N2 (racemic) [Pool 121] | 60.468 | 39.532 | 1533.45 | 626.45 | 54 | 826.45 | 518.45 | 46
CCCCCCc1nc(C(C)C)c2n1C(C(C)C)C(=O)N2 (racemic) [Pool 122] | 51.805 | 48.195 | 1443.7 | 536.70 | 53 | 817.3 | 509.30 | 47
CC(C)c1nc(C(C)C)n2c1NC(=O)C2C(C)C (racemic) [Pool 123] | 57.124 | 42.876 | 1498.8 | 591.80 | 55 | 832.5 | 524.50 | 45
Cc1nc(C(C)C)c2n1C(C(C)C)C(=O)N2 (centres unmarked) [Pool 3] | 54.228 | 45.772 | 1468.8 | 561.80 | 70 | 974.05 | 666.05 | 30
Cc1nc(C(C)C)c2n1C(CC(C)C)C(=O)N2 (centres unmarked) [Pool 4] | 95.420 | 4.580 | 1895.55 | 988.55 | 70 | 980.1 | 672.10 | 30
CCC(C)C1C(=O)Nc2c(C(C)C)nc(C)n21 (centres unmarked) [Pool 5] | 75.043 | 24.957 | 1684.45 | 777.45 | 78 | 1052.8 | 744.80 | 22
CCCCC1C(=O)Nc2c(C(C)C)nc(C)n21 (centres unmarked) [Pool 11] | 80.034 | 19.966 | 1736.15 | 829.15 | 47 | 756.05 | 448.05 | 53
CCCC1C(=O)Nc2c(C(C)C)nc(C)n21 (centres unmarked) [Pool 12] | 74.706 | 25.294 | 1680.95 | 773.95 | 72 | 998.7 | 690.70 | 28
Cc1nc(C(C)C)c2n1C(C)C(=O)N2 (centres unmarked) [Pool 18] | 88.016 | 11.984 | 1818.85 | 911.85 | 71 | 989.15 | 681.15 | 29
Cc1nc(C(C)C)c2n1C(C(C)C)C(=O)N2 (centres unmarked) [Pool 19] | 84.580 | 15.420 | 1783.25 | 876.25 | 75 | 1027.75 | 719.75 | 25
Cc1nc(C(C)C)c2n1C(CC(C)C)C(=O)N2 (centres unmarked) [Pool 20] | 68.996 | 31.004 | 1621.8 | 714.80 | 50 | 787.6 | 479.60 | 50
CCC(C)C1C(=O)Nc2c(C(C)C)nc(C)n21 (centres unmarked) [Pool 21] | 56.921 | 43.079 | 1496.7 | 589.70 | 55 | 833.5 | 525.50 | 45
CCCCC1C(=O)Nc2c(C(C)C)nc(C)n21 (centres unmarked) [Pool 27] | 79.855 | 20.145 | 1734.3 | 827.30 | 59 | 871.25 | 563.25 | 41
CCCC1C(=O)Nc2c(C(C)C)nc(C)n21 (centres unmarked) [Pool 28] | 67.601 | 32.399 | 1607.35 | 700.35 | 66 | 932.9 | 624.90 | 34
Cc1nc(C(C)C)c2n1C(CC1CCCCC1)C(=O)N2 (centres unmarked) [Pool 29] | 88.277 | 11.723 | 1821.55 | 914.55 | 61 | 891.65 | 583.65 | 39
